Assay results as given in ChEMBL document CHEMBL1132364, “Structure-activity relationship of N-(phenylalkyl)cinnamides as novel NR2B subtype-selective NMDA receptor antagonists” (J Med Chem, 1999).

How the values were obtained:
[1] = target: Glutamate NMDA receptor; Grin1/Grin2a (Rattus norvegicus, UniProt P35439+Q00959); assay: Antagonistic activity against N-methyl-D-aspartate glutamate receptor 1/2A.; type: functional
[2] = target: Glutamate NMDA receptor; Grin1/Grin2b (Rattus norvegicus, UniProt P35439+Q00960); assay: Antagonistic activity against N-methyl-D-aspartate glutamate receptor 1/2B.; type: functional
Chain of Glutamate NMDA receptor; Grin1/Grin2b (Q00960 whole entry, other chains not shown): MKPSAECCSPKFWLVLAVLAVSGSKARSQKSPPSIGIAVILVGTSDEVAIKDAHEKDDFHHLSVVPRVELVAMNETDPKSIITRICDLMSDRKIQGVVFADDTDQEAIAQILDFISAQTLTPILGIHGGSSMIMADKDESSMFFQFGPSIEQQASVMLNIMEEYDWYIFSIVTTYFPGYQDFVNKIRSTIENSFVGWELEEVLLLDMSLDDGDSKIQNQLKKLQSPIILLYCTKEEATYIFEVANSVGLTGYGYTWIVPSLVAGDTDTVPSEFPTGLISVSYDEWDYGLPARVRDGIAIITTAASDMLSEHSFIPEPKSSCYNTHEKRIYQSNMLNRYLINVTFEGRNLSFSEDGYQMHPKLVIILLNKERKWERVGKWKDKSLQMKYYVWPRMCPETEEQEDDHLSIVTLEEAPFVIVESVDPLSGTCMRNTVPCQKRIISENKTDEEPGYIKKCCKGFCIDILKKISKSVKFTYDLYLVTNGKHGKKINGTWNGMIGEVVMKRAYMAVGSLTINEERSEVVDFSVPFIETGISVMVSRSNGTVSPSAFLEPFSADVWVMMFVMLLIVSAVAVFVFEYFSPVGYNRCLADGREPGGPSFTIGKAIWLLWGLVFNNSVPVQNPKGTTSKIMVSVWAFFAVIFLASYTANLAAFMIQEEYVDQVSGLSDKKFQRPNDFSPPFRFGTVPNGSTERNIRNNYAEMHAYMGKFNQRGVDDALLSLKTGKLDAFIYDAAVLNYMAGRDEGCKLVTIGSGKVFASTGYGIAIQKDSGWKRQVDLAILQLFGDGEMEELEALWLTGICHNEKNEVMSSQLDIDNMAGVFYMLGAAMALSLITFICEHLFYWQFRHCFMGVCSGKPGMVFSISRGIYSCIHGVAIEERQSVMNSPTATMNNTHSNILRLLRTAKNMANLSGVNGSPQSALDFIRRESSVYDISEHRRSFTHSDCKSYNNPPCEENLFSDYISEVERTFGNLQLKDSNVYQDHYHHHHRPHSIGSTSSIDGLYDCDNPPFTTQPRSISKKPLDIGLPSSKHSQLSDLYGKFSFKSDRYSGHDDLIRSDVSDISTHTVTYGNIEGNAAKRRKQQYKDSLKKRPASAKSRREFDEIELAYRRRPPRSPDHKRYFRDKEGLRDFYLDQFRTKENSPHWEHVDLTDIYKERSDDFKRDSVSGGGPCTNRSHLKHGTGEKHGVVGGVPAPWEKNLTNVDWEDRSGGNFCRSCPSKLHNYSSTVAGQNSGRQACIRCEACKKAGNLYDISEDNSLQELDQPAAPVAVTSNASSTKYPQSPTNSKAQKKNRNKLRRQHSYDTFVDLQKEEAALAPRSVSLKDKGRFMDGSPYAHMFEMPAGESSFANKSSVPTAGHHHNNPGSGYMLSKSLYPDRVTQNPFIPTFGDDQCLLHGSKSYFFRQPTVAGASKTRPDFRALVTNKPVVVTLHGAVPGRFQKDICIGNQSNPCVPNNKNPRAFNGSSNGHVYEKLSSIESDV

[3] = target: Glutamate NMDA receptor; Grin1/Grin2c (Rattus norvegicus, UniProt P35439+Q00961); assay: Antagonistic activity against N-methyl-D-aspartate glutamate receptor 1/2C.; type: functional
Chain of Glutamate NMDA receptor; Grin1/Grin2c (Q00961 whole entry, other chains not shown): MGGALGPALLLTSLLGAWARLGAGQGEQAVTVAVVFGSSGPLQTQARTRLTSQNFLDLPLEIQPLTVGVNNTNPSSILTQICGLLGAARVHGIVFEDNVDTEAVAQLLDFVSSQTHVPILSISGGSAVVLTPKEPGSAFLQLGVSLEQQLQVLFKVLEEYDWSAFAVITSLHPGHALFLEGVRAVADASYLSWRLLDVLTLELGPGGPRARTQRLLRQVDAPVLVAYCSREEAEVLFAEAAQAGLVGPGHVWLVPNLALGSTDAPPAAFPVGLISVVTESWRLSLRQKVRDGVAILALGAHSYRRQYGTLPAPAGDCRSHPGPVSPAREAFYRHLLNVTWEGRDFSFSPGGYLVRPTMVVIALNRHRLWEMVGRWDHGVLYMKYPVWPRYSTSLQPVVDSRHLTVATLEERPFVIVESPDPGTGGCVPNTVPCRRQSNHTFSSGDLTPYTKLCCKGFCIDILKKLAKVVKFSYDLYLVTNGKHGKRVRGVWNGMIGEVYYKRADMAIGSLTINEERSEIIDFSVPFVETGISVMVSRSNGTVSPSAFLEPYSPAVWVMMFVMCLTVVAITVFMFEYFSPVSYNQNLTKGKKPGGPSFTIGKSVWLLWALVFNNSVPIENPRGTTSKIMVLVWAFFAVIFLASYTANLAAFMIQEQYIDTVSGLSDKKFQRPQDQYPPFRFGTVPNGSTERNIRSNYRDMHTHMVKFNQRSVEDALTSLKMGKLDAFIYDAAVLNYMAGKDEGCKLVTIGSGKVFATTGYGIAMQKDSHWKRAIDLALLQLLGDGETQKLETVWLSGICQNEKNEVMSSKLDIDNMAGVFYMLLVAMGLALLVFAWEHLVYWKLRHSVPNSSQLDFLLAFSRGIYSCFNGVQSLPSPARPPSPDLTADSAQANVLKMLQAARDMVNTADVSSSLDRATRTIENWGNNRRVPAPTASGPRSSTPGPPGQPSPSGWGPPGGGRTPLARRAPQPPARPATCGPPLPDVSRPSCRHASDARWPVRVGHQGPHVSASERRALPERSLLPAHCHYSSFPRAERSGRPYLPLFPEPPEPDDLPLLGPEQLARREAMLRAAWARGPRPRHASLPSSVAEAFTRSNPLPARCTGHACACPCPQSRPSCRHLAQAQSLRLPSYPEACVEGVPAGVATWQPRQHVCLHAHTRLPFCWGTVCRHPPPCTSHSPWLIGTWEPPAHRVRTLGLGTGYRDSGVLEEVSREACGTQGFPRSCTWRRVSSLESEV

[4] = target: T1, Alpha-1A adrenergic receptor (Homo sapiens, UniProt P35348); assay: Inhibition of Alpha-1 adrenergic receptor
T1 sequence (P35348 whole entry): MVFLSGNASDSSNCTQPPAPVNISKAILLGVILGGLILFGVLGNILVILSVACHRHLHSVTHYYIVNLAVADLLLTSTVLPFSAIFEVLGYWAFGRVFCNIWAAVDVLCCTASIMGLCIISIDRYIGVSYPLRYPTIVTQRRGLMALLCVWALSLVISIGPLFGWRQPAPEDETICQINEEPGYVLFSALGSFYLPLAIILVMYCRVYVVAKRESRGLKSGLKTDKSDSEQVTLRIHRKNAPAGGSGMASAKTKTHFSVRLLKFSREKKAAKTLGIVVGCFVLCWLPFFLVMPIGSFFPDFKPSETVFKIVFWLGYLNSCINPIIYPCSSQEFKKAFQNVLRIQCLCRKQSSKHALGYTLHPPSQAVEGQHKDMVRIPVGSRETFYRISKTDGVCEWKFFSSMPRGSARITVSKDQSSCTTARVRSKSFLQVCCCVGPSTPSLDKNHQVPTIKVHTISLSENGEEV

[5] = target: Epidermal growth factor receptor (Homo sapiens, UniProt P00533); assay: Inhibition of Epidermal growth factor receptor autophosphorylation

Chain of Glutamate NMDA receptor; Grin1/Grin2a (Q00959 whole entry, other chains not shown): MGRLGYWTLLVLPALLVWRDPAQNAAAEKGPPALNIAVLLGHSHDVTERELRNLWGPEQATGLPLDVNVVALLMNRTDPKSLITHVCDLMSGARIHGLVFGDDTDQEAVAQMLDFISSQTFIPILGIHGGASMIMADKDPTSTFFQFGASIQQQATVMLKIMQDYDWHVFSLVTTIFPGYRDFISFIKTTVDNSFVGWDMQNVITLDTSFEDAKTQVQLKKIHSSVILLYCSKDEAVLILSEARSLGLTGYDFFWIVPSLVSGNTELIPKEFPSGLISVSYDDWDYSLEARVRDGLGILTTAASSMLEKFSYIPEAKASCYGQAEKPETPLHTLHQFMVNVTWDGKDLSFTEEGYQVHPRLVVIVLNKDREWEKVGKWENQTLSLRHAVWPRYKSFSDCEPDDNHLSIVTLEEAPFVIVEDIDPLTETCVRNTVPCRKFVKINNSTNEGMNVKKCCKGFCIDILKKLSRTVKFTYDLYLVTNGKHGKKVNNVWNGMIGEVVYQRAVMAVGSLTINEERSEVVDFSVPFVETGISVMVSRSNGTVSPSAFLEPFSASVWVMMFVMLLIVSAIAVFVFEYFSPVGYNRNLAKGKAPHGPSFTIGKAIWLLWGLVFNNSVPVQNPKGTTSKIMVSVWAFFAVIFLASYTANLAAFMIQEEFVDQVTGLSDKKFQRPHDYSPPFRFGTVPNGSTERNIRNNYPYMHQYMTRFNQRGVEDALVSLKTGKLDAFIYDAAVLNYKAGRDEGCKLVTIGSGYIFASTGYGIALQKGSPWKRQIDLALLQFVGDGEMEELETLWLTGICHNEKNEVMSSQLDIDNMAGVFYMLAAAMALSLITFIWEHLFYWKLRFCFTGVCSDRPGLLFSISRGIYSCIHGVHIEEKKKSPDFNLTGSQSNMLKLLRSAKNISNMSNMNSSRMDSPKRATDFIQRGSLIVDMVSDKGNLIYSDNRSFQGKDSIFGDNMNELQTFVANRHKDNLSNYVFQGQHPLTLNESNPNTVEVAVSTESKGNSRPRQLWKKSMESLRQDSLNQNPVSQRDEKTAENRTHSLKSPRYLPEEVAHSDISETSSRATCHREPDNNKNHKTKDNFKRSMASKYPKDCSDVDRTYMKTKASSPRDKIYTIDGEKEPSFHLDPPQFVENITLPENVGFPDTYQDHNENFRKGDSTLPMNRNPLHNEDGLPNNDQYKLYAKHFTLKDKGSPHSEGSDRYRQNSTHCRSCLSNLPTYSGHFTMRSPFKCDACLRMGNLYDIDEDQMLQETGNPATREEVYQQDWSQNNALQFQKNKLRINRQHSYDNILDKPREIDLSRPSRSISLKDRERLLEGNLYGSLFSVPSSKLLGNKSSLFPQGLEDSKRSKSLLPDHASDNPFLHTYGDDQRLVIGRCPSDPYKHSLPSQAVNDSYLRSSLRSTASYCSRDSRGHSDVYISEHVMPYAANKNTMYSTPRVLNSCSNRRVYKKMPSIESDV

`O=C(/C=C/c1ccc(O)cc1)NCCc1ccc(Cl)cc1` was tested, and the IC50 [1] was over 100 µM, the IC50 [2] was 0.33 µM and the IC50 [3] was over 100 µM.
Work on `N#C/C(=C\c1ccc(Cl)cc1)C(=O)NCCc1ccc(O)cc1` yielded an IC50 [1] of 78 µM, an IC50 [2] of 3.4 µM and an IC50 [3] of over 100 µM.
`O=C(/C=C/c1ccc(Cl)cc1)NCCc1ccc(O)cc1` was tested, and the IC50 [1] was over 100 µM, the IC50 [2] was 0.17 µM and the IC50 [3] was over 100 µM.
With `O=C(/C=C/c1cc(Cl)ccc1Cl)NCCCCc1ccccc1` the IC50 [1] was over 100 µM, the IC50 [2] was over 100 µM and the IC50 [3] was over 100 µM.
`O=C(/C=C/c1ccc(O)cc1)NCCCCc1ccc(Cl)cc1` was tested, and the IC50 [1] was over 100 µM, the IC50 [2] was 0.125 µM and the IC50 [3] was over 100 µM.
`O=C(/C=C/c1ccc(O)cc1)N1CCC(Cc2ccccc2)CC1` gave an IC50 [4] of over 100 µM, an IC50 [1] of over 100 µM and an IC50 [3] of over 100 µM.
With `O=C(CCCCCc1ccccc1)CCc1ccc(O)cc1` the IC50 [1] was 23 µM, the IC50 [2] was 1.8 µM and the IC50 [3] was over 100 µM.
In the case of `CCN(CC)CCOc1ccc(CCNC(=O)/C=C/c2ccc(Cl)cc2)cc1`, the IC50 [1] is reported as 49 µM, the IC50 [2] is reported as 32 µM and the IC50 [3] is reported as over 100 µM.
Compound `C[C@@H](CN1CCC(Cc2ccccc2)CC1)[C@@H](O)c1ccc(O)cc1` has an IC50 [1] of 52 µM and an IC50 [2] of 0.009 µM.
With `N#C/C(=C\C(=O)NCCc1ccc(O)cc1)c1ccccc1` the IC50 [1] was over 100 µM, the IC50 [2] was 46 µM and the IC50 [3] was over 100 µM.
With `N#C/C(=C\c1ccc(O)c(O)c1)C(=O)NCCCCc1ccccc1` the IC50 [4] was over 100 µM, the IC50 [1] was over 100 µM and the IC50 [2] was 0.56 µM. It also gave an IC50 [3] of over 100 µM.
`O=C(/C=C/c1ccc(Cl)cc1)NCCc1ccccc1` gave an IC50 [1] of over 100 µM, an IC50 [2] of over 100 µM and an IC50 [3] of over 100 µM.
`O=C(/C=C/c1ccccc1)NCCc1ccc(O)cc1` was tested, and the IC50 [1] was over 100 µM, the IC50 [2] was 0.68 µM and the IC50 [3] was over 100 µM.
Work on `N#C/C(=C\C(=O)NCCc1ccc(O)cc1)c1ccc(Cl)cc1` yielded an IC50 [1] of over 100 µM, an IC50 [2] of 9 µM and an IC50 [3] of over 100 µM.
Work on `N#C/C(=C\c1cccc(O)c1)C(=O)NCCCCc1ccccc1` yielded an IC50 [1] of over 100 µM, an IC50 [2] of over 100 µM and an IC50 [3] of over 100 µM.
`C[C@H]([C@@H](O)c1ccc(O)cc1)N1CCC(Cc2ccccc2)CC1` [(S,R)-IFENPRODIL] gave an IC50 [4] of 0.1 µM.
For `O=C(O)COc1ccc(CCNC(=O)/C=C/c2ccc(Cl)cc2)cc1`, the IC50 [1] was 45 µM, the IC50 [2] was 52 µM and the IC50 [3] was over 100 µM.
With `N#C/C(=C\c1ccc(Cl)cc1)C(=O)NCCCCc1ccccc1` the IC50 [1] was over 100 µM, the IC50 [2] was over 100 µM and the IC50 [3] was over 100 µM.
Compound `O=C(/C=C/c1ccc(Cl)cc1)NCCc1cccc(O)c1` has an IC50 [1] of over 100 µM, an IC50 [2] of 7.4 µM and an IC50 [3] of over 100 µM.
With `O=C(/C=C/c1ccc(O)cc1)NCCc1ccccc1` the IC50 [1] was over 100 µM, the IC50 [2] was 1.5 µM and the IC50 [3] was over 100 µM.
For `O=C(/C=C/c1ccc(O)cc1)NCCc1ccc(O)cc1` [N-P-COUMAROYL TYRAMINE], the IC50 [1] was over 100 µM, the IC50 [2] was 21 µM and the IC50 [3] was over 100 µM.
Compound `N#C/C(=C\c1ccc(O)c(O)c1)C(=O)NCc1ccccc1` has an IC50 [1] of 19 µM, an IC50 [2] of 45 µM and an IC50 [3] of 100 µM.
`O=C(/C=C/c1ccc(Cl)cc1)NCCc1ccccc1O` was tested, and the IC50 [1] was over 100 µM, the IC50 [2] was 8.3 µM and the IC50 [3] was over 100 µM.
`N#C/C(=C\c1ccc(O)cc1)C(=O)NCCCCc1ccccc1` showed an IC50 [1] of over 100 µM, an IC50 [2] of 0.29 µM and an IC50 [3] of over 100 µM.
`N#C/C(=C\c1ccc(O)c(O)c1)C(=O)NCCCc1ccccc1` showed an IC50 [1] of over 100 µM, an IC50 [2] of 0.66 µM and an IC50 [3] of 60 µM.
`C[C@@H]([C@@H](O)c1ccc(O)cc1)N1CCC(O)(c2ccccc2)CC1` [TRAXOPRODIL] was tested, and the IC50 [1] was over 100 µM and the IC50 [3] was over 100 µM.
Compound `O=C(CCc1ccc(O)cc1)NCCCCc1ccccc1` has an IC50 [1] of over 100 µM, an IC50 [2] of 0.43 µM and an IC50 [3] of over 100 µM.
Work on `N#C/C(=C\c1ccc(F)cc1)C(=O)NCCCCc1ccccc1` yielded an IC50 [1] of over 100 µM, an IC50 [2] of over 100 µM and an IC50 [3] of over 100 µM.
`O=C(/C=C/c1ccc(Cl)cc1Cl)NCCc1ccc(O)cc1` was tested, and the IC50 [4] was over 100 µM, the IC50 [1] was over 100 µM and the IC50 [2] was 19 µM. It also gave an IC50 [3] of over 100 µM.
`O=C(/C=C/c1ccccc1)NCCCCc1ccccc1` gave an IC50 [1] of over 100 µM, an IC50 [2] of 24 µM and an IC50 [3] of over 100 µM.
`O=C(/C=C/c1ccc(Cl)cc1)NCCc1ccc(Cl)cc1` was tested, and the IC50 [1] was over 100 µM, the IC50 [2] was over 100 µM and the IC50 [3] was over 100 µM.
Compound `N#C/C(=C\c1ccc(O)c(O)c1)C(=O)Nc1ccccc1` has an IC50 [1] of over 100 µM, an IC50 [2] of 90 µM and an IC50 [3] of over 100 µM.
Compound `N#C/C(=C\c1ccc(O)c(O)c1)C(=O)NCCc1ccccc1` has an IC50 [5] of under 0.625 µM, an IC50 [1] of over 100 µM and an IC50 [2] of 1.7 µM. For the same compound, the IC50 [3] was over 100 µM.
With `N#C/C(=C\c1ccccc1)C(=O)NCCCCc1ccccc1` the IC50 [1] was over 100 µM, the IC50 [2] was 80 µM and the IC50 [3] was over 100 µM.
Work on `O=C(/C=C/c1ccc(O)cc1)NCCCCc1ccccc1` yielded an IC50 [4] of over 100 µM, an IC50 [1] of over 100 µM and an IC50 [2] of 0.077 µM. It also gave an IC50 [3] of over 100 µM.
